As usually defined, the IC50 is the concentration needed to halve the response being measured.

The subject of data set [1] is HL-60. The data set can be described thus: Effect on TrxR1 protein expression in human HL60 cells at 1 to 5 uM incubated for 24 hrs by Western blot. It is filed as ADME, cell-based. To be noted: hl-60, 24 h. In general terms: Immunoblotting shows a protein as a band on a membrane.
The test system of a further data set is A549. The data set can be described thus: Cytotoxicity in human A549 cells assessed as reduction in cell viability at 1 to 5 uM incubated for 48 hrs by MTT assay. Type of data set: functional, cell-based.
The next data set deals with HEK-293T. Put plainly: Cytotoxicity in human HEK293T cells assessed as reduction in cell viability at 1 to 5 uM incubated for 48 hrs by MTT assay. Type of data set: cell-based. In general terms: Formazan colour is commonly taken as a measure of viable cells.
For data set [2], the target named is T1, Thioredoxin reductase 1, cytoplasmic (Rattus norvegicus) (UniProt O89049).
T1 sequence (whole entry): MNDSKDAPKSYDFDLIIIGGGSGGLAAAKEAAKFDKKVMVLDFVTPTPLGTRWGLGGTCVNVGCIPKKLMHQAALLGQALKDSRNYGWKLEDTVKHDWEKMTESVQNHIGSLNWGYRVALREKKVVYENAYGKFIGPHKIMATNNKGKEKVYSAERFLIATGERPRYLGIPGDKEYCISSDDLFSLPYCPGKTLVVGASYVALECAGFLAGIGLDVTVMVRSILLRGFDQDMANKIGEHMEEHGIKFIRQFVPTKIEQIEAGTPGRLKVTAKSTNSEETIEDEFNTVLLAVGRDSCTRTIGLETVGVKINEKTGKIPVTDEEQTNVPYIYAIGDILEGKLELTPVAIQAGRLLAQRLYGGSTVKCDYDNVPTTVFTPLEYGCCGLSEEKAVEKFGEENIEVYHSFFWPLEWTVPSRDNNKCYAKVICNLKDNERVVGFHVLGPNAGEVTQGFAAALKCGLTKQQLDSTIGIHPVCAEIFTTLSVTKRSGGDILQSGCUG
Put plainly: (§1) Inhibition of NADPH-reduced rat TrxR1 assessed as suppression of DTNB reduction incubated for 1 hr.

Data set [3] deals with T2, Thioredoxin reductase 1, cytoplasmic (Rattus norvegicus, UniProt O89049).
T2 sequence (O89049 whole entry): T1 sequence (whole entry)
The data set is described as §1.

The target in data set [4] is T1, Thioredoxin reductase 1, cytoplasmic (Rattus norvegicus). The data set can be described thus: Irreversible inhibition of NADPH-reduced rat TrxR1 assessed as suppression of DTNB reduction incubated for 1 hr followed by compound removal from incubation mixture by column desalting.
The test system of data set [5] is T3, Thioredoxin reductase 1, cytoplasmic (Rattus norvegicus), O89049 [U498C].
T3 sequence (whole entry): T1 sequence (whole entry) with U498C
The data set can be described thus: Inhibition of NADPH-reduced rat TrxR1 U498C mutant assessed as suppression of DTNB reduction at 1 to 5 uM incubated for 1 hr.

Data set [6] deals with T4, Glutathione reductase (Rattus norvegicus) (UniProt P70619).
T4 sequence (whole entry): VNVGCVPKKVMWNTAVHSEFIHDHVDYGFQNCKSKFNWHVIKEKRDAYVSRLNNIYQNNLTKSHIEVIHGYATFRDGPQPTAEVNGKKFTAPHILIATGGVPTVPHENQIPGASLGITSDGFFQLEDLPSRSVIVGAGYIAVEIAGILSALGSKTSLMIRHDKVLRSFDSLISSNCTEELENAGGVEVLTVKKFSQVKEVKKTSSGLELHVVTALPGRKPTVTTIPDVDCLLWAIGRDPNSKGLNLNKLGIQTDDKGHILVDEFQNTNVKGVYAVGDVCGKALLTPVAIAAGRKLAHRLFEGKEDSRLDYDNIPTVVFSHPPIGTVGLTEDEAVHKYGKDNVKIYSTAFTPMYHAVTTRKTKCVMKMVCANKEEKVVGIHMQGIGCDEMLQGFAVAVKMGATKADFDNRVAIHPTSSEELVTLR
Put plainly: Inhibition of NADPH-reduced rat glutathione reductase at 1 to 5 uM incubated for 1 hr in presence of NADPH and GSSG.

Another data set deals with HeLa. Put plainly: Cytotoxicity in human HeLa cells transfected with non targetting vector assessed as reduction in cell viability at 1 to 5 uM incubated for 48 hrs by MTT assay. It is filed as functional, cell-based.
Data set [7] relates to HL-60. Put plainly: Potentiation of H2O2-induced cytotoxicity in human HL60 cells assessed as induction of cell death at 1 uM incubated for 24 hrs by MTT assay (reference value: 4%). Type of data set: functional.
Data set [8] deals with HL-60. Put plainly: Cytotoxicity in human HL60 cells assessed as cell viability at 1 to 5 uM incubated for 48 hrs after 24 hrs pre-treatment with 50 uM BSO before compound addition by MTT assay. Type of data set: functional, cell-based.
Data set [9] relates to HL-60. The data set can be described thus: Induction of apoptosis in human HL60 cells assessed as increase in condensed and fluorescent nuclei at 1 to 5 uM incubated for 24 hrs by Hoechst 33342 staining based phase contrast and fluorescence microscopy. Type of data set: functional, cell-based.
The subject of data set [10] is HL-60. Put plainly: Induction of apoptosis in human HL60 cells 5 uM incubated for 24 hrs by Annexin V/propidium iodide staining based flow cytometry. It is filed as functional.
Data set [11] concerns HL-60. The data set can be described thus: Induction of necrosis in human HL60 cells 5 uM incubated for 24 hrs by Annexin V/propidium iodide staining based flow cytometry. It is filed as functional, cell-based. In general terms: A flow cytometer gives signals particle by particle.

SMILES strings stand for the structures. Changes are numbered by the printed parent chain. Calls of active or inactive are those of the source. The calls are words filed in the database; no cut-off is given here.

`CC1=CC(=O)c2c(O)ccc(O)c2C1=O`: the Activity result in the data set on HL-60 [1] is given as “Non-Toxic”; with HEK-293T it was “Non-Toxic”; with HL-60 [7], over 43%; with HL-60 [10] it was 56%. Besides, the outcome with A549, with HeLa, with HL-60 [8], with HL-60 [9] and in the data set on HL-60 [11] was Active. Besides, the inhibition result in data set [2] was “Dose-dependent effect”. For the same molecule, the IC50 in data set [3] amounted to 700 nM. For the same molecule, the inhibition result in [4] is “Active”. Besides, the inhibition result in [5] and in data set [6] was “inactive” throughout.

The record behind these values is ChEMBL document CHEMBL4130472, “Synthesis of naphthazarin derivatives and identification of novel thioredoxin reductase inhibitor as potential anticancer agent” (Eur J Med Chem, 2017).
